From ChEMBL document CHEMBL4184278, “Synthesis and cytotoxicity of novel imidazo[4,5-d]azepine compounds derived from marine natural product ceratamine A” (Bioorg Med Chem Lett, 2018)

How the values were obtained:
Assay type in all cases: functional, cell-based
A549 = test: Cytotoxicity against human A549 cells assessed as growth inhibition after 72 hrs by MTT assay; conditions: A549, 72 h
HCT-116 = test: Cytotoxicity against human HCT116 cells assessed as growth inhibition after 72 hrs by MTT assay; conditions: HCT-116, 72 h
HepG2 = test: Cytotoxicity against human HepG2 cells assessed as growth inhibition after 72 hrs by MTT assay; conditions: HepG2, 72 h
BGC-823 = test: Cytotoxicity against human BGC823 cells assessed as growth inhibition after 72 hrs by MTT assay; conditions: BGC-823, 72 h
A2780 = test: Cytotoxicity against human A2780 cells assessed as growth inhibition after 72 hrs by MTT assay; conditions: A2780, 72 h

| Compound | IC50 (A549) [µM] | IC50 (HCT-116) [µM] | IC50 (HepG2) [µM] | IC50 (BGC-823) [µM] | IC50 (A2780) [µM] |
| --- | --- | --- | --- | --- | --- |
| Cc1cc(C)cc(CN2CCc3ncn(COCc4ccccc4)c3/C(=C/c3ccccc3)C2=O)c1 | 22.5 | 6.23 | 40.9 | 52.6 | 31.3 |
| O=C1/C(=C\c2ccccc2)c2c(ncn2COCc2ccccc2)CCN1Cc1ccc(Cl)cc1 | 11.8 | 10.5 | 47.9 | 75.7 | 22.2 |
| O=C1/C(=C\c2ccccc2)c2c(ncn2COCc2ccccc2)CCN1Cc1ccc2ccccc2c1 | 26.4 | 19.4 | 23.7 | 93.3 | 72.8 |
| COc1cc(/C=C2\C(=O)N(Cc3ccccc3)CCc3ncn(COCc4ccccc4)c32)cc(OC)c1OC | 8.56 | 8.9 | 10 | 12.9 | 8.97 |
| O=C1/C(=C\c2ccccc2)c2c(ncn2COCc2ccccc2)CCN1Cc1ccc(F)cc1 | 19.6 | 11.2 | 39.4 | 72.9 | 24.8 |
| O=C1/C(=C\c2ccncc2)c2c(ncn2COCc2ccccc2)CCN1Cc1ccccc1 | 36 | 67.1 | > 100 | > 100 | > 100 |
| O=C1/C(=C\c2ccccc2)c2c(ncn2COCc2ccccc2)CCN1Cc1ccccc1 | 9.9 | 20 | 13.9 | 20.4 | 20.4 |
| O=C1/C(=C\c2ccc(C(F)(F)F)cc2)c2c(ncn2COCc2ccccc2)CCN1Cc1ccccc1 | 52.5 | 36 | 51.4 | 42.6 | 28.2 |
| O=C1/C(=C\c2ccccc2)c2c(ncn2COCc2ccccc2)CCN1Cc1ccc(-c2ccccc2)cc1 | 18.3 | 14 | 72.5 | 81 | 48.3 |
| Cc1ccc(CN2CCc3ncn(COCc4ccccc4)c3/C(=C/c3ccccc3)C2=O)cc1 | 11.4 | 7.94 | 44.6 | 39.1 | 21.2 |
| O=C1/C(=C\c2ccccc2)c2[nH]cnc2CCN1Cc1ccccc1 | 51.1 | > 100 | > 100 | > 100 | > 100 |
| COc1ccc(CN2CCc3ncn(COCc4ccccc4)c3/C(=C/c3ccccc3)C2=O)cc1 | 46.8 | 31.1 | 44.4 | 71.6 | 43.1 |
| Cc1cccc(CN2CCc3ncn(COCc4ccccc4)c3/C(=C/c3ccccc3)C2=O)c1 | 16.1 | 3.8 | 34.3 | 14.6 | 26.3 |
| CC(C)(C)c1ccc(CN2CCc3ncn(COCc4ccccc4)c3/C(=C/c3ccccc3)C2=O)cc1 | 20.6 | 8.46 | 18 | 27.8 | 23.9 |
| Cc1ccccc1CN1CCc2ncn(COCc3ccccc3)c2/C(=C/c2ccccc2)C1=O | 25.6 | 24.7 | 53.3 | 31.3 | 25.2 |
| CNc1nc2ccn(C)c(=O)c(Cc3cc(Br)c(OC)c(Br)c3)c-2n1 [CERATAMINE A] | 26.8 | 12.4 | 7.8 | 20 | 11.2 |
